Source: publication PMC8801607, “New Chitosan Polymer Scaffold Schiff Bases as Potential Cytotoxic Activity: Synthesis, Molecular Docking, and Physiochemical Characterization” (Frontiers in Chemistry, 2022)

Tested on: MCF-7 cancer cell line
Assay: cells
Experimental: MCF-7 breast cell line was employed in this study. The MCF-7 cell line was pre-incubated on a micro titer plate in this technique. Each test’s results are expressed as a percentage of the treated cells’ growth relative to the untreated control cells. […] 0.1 ml of the cell suspension (containing 5 × 10^6 cells/100 µL)and 0.1 ml of the test solution (6.25–100 µg in 1% DMSO such that the final concentration of DMSO in media was less than 1%) were added to the […] and incubated at 37°C for 72 h in a 5 percent CO2 incubator. The control wells included 1 percent DMSO and cell suspension, while the blank contained simply cell suspension. After 72 h, 20 µL of MTT were added and left in the CO2 incubator for 2 h before adding 100 µL of propanol. To protect the plate from light, it was wrapped in aluminum foil. The […] were then shaken for 10–25 min in a rotary shaker. The […] were processed on an ELISA reader for absorbance at 562 nm after 10–20 min.

## COc1cccc2c1C(=O)c1c(O)c3c(c(O)c1C2=O)C[C@@](O)(C(=O)CO)C[C@@H]3O[C@H]1C[C@H](N)[C@H](O)[C@H](C)O1 [Doxorubicin]
Homo sapiens, MCF7
  GI50: 0.04 µM
MCF-7 cell line, MTT assay, mean ± SD of three separate experiments
  TGI (total growth of inhibition): 0.25 ± 0.23 µM
